This passage reports IC50 results from US7223772B1, “Pyrazolopyridine derivatives as selective cox-2 inhibitors” (SmithKline Beecham Corporation, priority 1998, dated 2007).

Assay [1] addresses T1, human COX-2 (Homo sapiens, UniProt P35354).
T1 construct: expressed in transfected cells; host or cells: COS cells (stably transfected)
T1 sequence (P35354 18-604): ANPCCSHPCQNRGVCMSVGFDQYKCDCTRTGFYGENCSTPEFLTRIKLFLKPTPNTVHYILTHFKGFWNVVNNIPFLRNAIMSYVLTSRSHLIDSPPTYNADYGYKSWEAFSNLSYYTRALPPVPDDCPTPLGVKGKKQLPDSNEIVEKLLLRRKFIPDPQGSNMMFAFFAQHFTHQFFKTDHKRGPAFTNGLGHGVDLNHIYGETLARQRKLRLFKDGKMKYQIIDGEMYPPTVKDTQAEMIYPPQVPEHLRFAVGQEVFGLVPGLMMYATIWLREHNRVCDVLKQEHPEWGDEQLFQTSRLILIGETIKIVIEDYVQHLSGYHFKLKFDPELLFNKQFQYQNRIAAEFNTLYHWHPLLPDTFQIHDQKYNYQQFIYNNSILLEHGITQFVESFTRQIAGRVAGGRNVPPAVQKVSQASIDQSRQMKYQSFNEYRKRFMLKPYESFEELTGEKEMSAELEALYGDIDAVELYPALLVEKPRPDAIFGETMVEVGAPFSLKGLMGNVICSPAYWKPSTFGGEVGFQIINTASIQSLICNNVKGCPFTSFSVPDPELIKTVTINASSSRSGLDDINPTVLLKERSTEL
Kind of assay: Inhibition of PGE2 release in COS cells stably transfected with human COX-2. The format is cell-based. The conditions noted are these: COS cells transfected with human COX-2, 30 μM arachidonic acid. The procedure:
(§1) Inhibitory activity against human COX-1 and COX-2 was assessed in COS cells which had been stably transfected with cDNA for human COX-1 and human COX-2. 24 Hours prior to experiment, COS cells were transferred from the 175 cm^2 flasks in which they were grown, onto 24-well cell culture plates using the following procedure. The incubation medium (Dulbecco's modified eagles medium (DMEM) supplemented with heat-inactivated foetal calf serum (10%v/v), penicillin (100 lU/ml), streptomycin (100 μg/ml) and geneticin (600 μg/ml)) was removed from a flask of confluent cells (1 flask at confluency contains approximately 1×10^7 cells). 10 ml of phosphate buffered saline (PBS) was added to the flask to wash the cells. Having discarded the PBS, cells were then rinsed in 10 ml trypsin for 20 seconds, after which the trypsin was removed and the flask placed in an incubator (37°) for 1-2 minutes until cells became detached from the flask. The flask was then removed from the incubator and cells resuspended in 10 ml of fresh incubation medium. The contents of the flask was transferred to a 250 ml sterile container and the volume of incubation medium subsequently made up to 100 ml. 1 ml cell suspension was pipetted into each well of 4×24-well cell culture plates. The plates were then placed in an incubator (37° C., 95% air/5% CO2) overnight. If more than 1 flask of cells were required, the cells from flasks were combined before being dispensed into the 24-well plates.
(§2) Following the overnight incubation, the incubation medium was completely removed from the 24-well cell culture plates and replaced with 250 μl fresh DMEM (37° C.). The test compounds were made up to 250× the required test concentration in DMSO and were added to the wells in a volume of 1 μl. Plates were then mixed gently by swirling and then placed in an incubator for 1 hour (37° C., 95% air/5% CO2). Following the incubation period, 10 μl of arachidonic acid (750 μM) was added to each well to give a final arachidonic acid concentration of 30 μM. Plates were then incubated for a further 15 minutes, after which the incubation medium was removed from each well of the plates and stored −20° C., prior to determination of prostaglandin E2 (PGE2) levels using enzyme immunoassay. The inhibitory potency of the test compound was expressed as an IC50 value, which is defined as the concentration of the compound required to inhibit the PGE2 release from the cells by 50%. The selectivity ratio of inhibition of COX-1 versus COX-2 was calculated by comparing respective IC50 values. The following IC50 values for inhibition of COX-2 and COX-1 were obtained for compounds of the invention: […]

Assay [2] concerns the target T2, human COX-1 (Homo sapiens, UniProt P23219).
T2 construct: expressed in transfected cells; host or cells: COS cells (stably transfected)
Kind of assay: Inhibition of PGE2 release in COS cells stably transfected with human COX-1. The format is cell-based. The conditions noted are these: COS cells transfected with human COX-1, 30 μM arachidonic acid. Here is the method: as §1, §2

T2 sequence (P23219 24-599): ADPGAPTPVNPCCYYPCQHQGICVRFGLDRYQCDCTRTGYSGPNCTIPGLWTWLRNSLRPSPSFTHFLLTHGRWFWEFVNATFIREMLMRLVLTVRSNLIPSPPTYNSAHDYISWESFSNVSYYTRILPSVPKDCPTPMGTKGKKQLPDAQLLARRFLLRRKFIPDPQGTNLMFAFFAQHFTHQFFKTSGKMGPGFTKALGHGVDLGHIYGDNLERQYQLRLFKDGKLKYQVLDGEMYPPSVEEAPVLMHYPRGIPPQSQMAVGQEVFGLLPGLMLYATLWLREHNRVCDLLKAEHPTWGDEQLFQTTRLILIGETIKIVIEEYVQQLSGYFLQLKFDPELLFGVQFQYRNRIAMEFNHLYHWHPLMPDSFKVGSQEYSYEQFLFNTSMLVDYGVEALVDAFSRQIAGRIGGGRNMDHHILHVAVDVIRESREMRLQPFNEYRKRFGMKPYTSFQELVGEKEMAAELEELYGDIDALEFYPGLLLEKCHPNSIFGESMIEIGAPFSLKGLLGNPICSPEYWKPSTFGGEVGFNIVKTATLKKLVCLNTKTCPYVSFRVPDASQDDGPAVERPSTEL

For orientation: IC50 means the concentration at which inhibition is half-maximal. For `NS(=O)(=O)c1ccc(-c2c(-c3cccc(F)c3)nn3cc(C(F)(F)F)ccc23)cc1` [Example 1(vii), 4-[2-(3-Fluoro-phenyl)-6-trifluoromethyl-pyrazolo[1,5-a]pyridin-3-yl]benzenesulfonamide], the values for the IC50 in assay [1] and in assay [2] were 34 nM and greater than 100000 nM, respectively.
In the same order, the values of `CS(=O)(=O)c1ccc(-c2c(-c3cccc(F)c3)nn3cc(C(F)(F)F)ccc23)cc1` [Example 2, 2-(3-Fluoro-phenyl)-3-(4-methanesulfonyl-phenyl)-6-trifluoromethyl-pyrazolo[1,5-a]pyridine] are 548 nM and greater than 100000 nM.
For `CCOc1ccc(-c2nn3cc(C(F)(F)F)ccc3c2-c2ccc(S(N)(=O)=O)cc2)cc1` [Example 3, 4-[2-(4-Ethoxy-phenyl)-6-trifluoromethyl-pyrazolo[1,5-a]pyridin-3-yl]benzenesulfonamide], the IC50 in assay [1] is 34 nM; in assay [2] it was 32200 nM.
For `NS(=O)(=O)c1ccc(-c2c(-c3ccc(F)cc3)nn3cc(C(F)(F)F)ccc23)cc1` [Example 4, 4-[2-(4-Fluoro-phenyl)-6-trifluoromethyl-pyrazolo[1,5-a]pyridin-3-yl]benzenesulfonamide] the same measures were 34 nM and greater than 100000 nM.
In the same order, the values of `CS(=O)(=O)c1ccc(-c2c(-c3ccc(F)cc3)nn3cc(C(F)(F)F)ccc23)cc1` [Example 5, 2-(4-Fluoro-phenyl)-3-(4-methanesulfonyl-phenyl)-6-trifluoromethyl-pyrazolo[1,5-a]pyridine] are 26 nM and greater than 100000 nM.
For `NS(=O)(=O)c1ccc(-c2c(-c3ccccc3)nn3cc(C(F)(F)F)ccc23)cc1` [Example 6, 4-(2-Phenyl-6-trifluoromethyl-pyrazolo[1,5-a]pyridin-3-yl)-benzenesulfonamide] the same measures were 31 nM and 26300 nM.
Turning to `CS(=O)(=O)c1ccc(-c2c(-c3ccccc3)nn3cc(C(F)(F)F)ccc23)cc1` [Example 7, 3-(4-Methanesulfonyl-phenyl)-2-phenyl-6-trifluoromethyl-pyrazolo[1,5-a]pyridine], the results for the IC50 in assay [1] and in assay [2] were 30 nM and greater than 100000 nM, respectively.
